These results are taken from ChEMBL document CHEMBL3997788, “Virtual screening and experimental validation identify novel modulators of nuclear receptor RXRα from Drugbank database” (Bioorg Med Chem Lett, 2017).

Molecules are shown by their SMILES. Activity calls are given as the source filed them. The rule behind the calls is not given here.

The target of experiment [1] is T1, Retinoic acid receptor RXR-alpha (Homo sapiens) (UniProt P19793).
T1 sequence (whole entry): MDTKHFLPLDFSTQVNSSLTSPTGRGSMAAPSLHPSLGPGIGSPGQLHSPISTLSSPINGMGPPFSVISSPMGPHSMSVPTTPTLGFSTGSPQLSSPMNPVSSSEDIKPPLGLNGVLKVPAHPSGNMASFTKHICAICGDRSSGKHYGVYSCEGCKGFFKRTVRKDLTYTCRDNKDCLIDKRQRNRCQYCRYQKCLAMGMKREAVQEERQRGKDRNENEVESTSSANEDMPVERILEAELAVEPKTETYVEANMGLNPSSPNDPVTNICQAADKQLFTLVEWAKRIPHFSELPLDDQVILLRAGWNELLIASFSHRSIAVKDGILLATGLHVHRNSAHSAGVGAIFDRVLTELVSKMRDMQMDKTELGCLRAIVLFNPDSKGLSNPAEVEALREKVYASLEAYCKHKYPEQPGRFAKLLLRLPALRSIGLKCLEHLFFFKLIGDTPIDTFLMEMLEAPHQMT
Nature of the experiment: Agonist activity at Myc-tagged RXRalpha (unknown origin) expressed in human MCF-7 cells assessed as receptor transactivation at 10 uM after 24 hrs by luciferase reporter gene assay. The format is cell-based.

The target in experiment [2] is T1, Retinoic acid receptor RXR-alpha (Homo sapiens). Nature of the experiment: Agonist activity at Myc-tagged RXRalpha (unknown origin) expressed in human MCF-7 cells assessed as increase in 9-cis-RA induced receptor transactivation at 5 to 10 uM after 24 hrs by luciferase reporter gene assay. The class given is cell-based.
Experiment [3] has the same target. Nature of the experiment: Agonist activity at Myc-tagged RXRalpha (unknown origin) expressed in human MCF-7 cells assessed as increase in 9-cis-RA induced receptor transactivation at 1 uM after 24 hrs by luciferase reporter gene assay. The class given is cell-based.
The target is the same in experiment [4]. Put plainly: Antagonist activity at Myc-tagged RXRalpha (unknown origin) expressed in human MCF-7 cells assessed as inhibition of 9-cis-RA induced receptor transactivation at 10 uM after 24 hrs by luciferase reporter gene assay. The format is cell-based. For orientation: Reporter assays use an easily measured gene product as a stand-in for the process of interest.

In experiment [5] the target is T2, Retinoic acid receptor RXR-alpha (Homo sapiens, UniProt P19793).
T2 sequence (P19793 whole entry): T1 sequence (whole entry)
Nature of the experiment: Binding affinity to RXRalpha-LBD (unknown origin) measured up to 120 sec by surface plasma resonance method.

For experiment [6], the target named is T1, Retinoic acid receptor RXR-alpha (Homo sapiens). Put plainly: Antagonist activity at Myc-tagged RXRalpha (unknown origin) expressed in human MCF-7 cells assessed as inhibition of 9-cis-RA induced receptor transactivation after 24 hrs by luciferase reporter gene assay. The format is cell-based.
Experiment [7] shares this target. Nature of the experiment: Antagonist activity at Myc-tagged RXRalpha (unknown origin) expressed in human MCF-7 cells assessed as inhibition of 9-cis-RA induced receptor transactivation at 1 uM after 24 hrs by luciferase reporter gene assay. The format is cell-based.
Experiment [8] has the same target. Nature of the experiment: Antagonist activity at Myc-tagged RXRalpha (unknown origin) expressed in human MCF-7 cells assessed as inhibition of 9-cis-RA induced receptor transactivation at 100 nM after 24 hrs by luciferase reporter gene assay. The format is cell-based.

Take `CN(CCOc1ccc(CC2SC(=O)NC2=O)cc1)c1ccccn1` (stereo not drawn): the result in experiment [1] and in experiment [3] was inactive. In experiment [2], the result was Active.

In the case of `O=C1[C@H](CC[C@H](O)c2ccc(F)cc2)[C@@H](c2ccc(O)cc2)N1c1ccc(F)cc1`, the inhibition result in experiment [4] was “Active”.

As to `O=C1C=CCC(/C=C/c2c(C3CC3)nc3ccccc3c2-c2ccc(F)cc2)O1` (stereo not drawn), the inhibition entry in experiment [4] was “inactive”. In experiment [5], this compound registered an equilibrium dissociation constant (Kd) of 138 µM.

As to `Clc1ccc(CCC(Cn2ccnc2)Sc2c(Cl)cccc2Cl)cc1` (stereo not drawn), in experiment [4], the inhibition entry is “Active”.

Take `CC(C)n1c(/C=C/C(O)CC(O)CC(=O)O)c(-c2ccc(F)cc2)c2ccccc21` (stereo not drawn) [FLUVASTATIN]: the inhibition result in experiment [4] is “Active”. The inhibition result in experiment [6] is “Dose-dependent effect”. The compound also displayed an equilibrium dissociation constant (Kd) in experiment [5] of 11 µM.

`CC[C@H](C)C(=O)O[C@H]1C[C@@H](O)C=C2C=C[C@H](C)[C@H](CC[C@@H](O)C[C@@H](O)CC(=O)O)[C@H]21`: the inhibition entry in experiment [4] was “inactive”.

In the case of `CC(C)c1nc(N(C)S(C)(=O)=O)nc(-c2ccc(F)cc2)c1/C=C/[C@@H](O)C[C@@H](O)CC(=O)O`, the inhibition result in experiment [4] was “Active”.

Consider `O=C(O)C[C@H](O)C[C@H](O)/C=C/c1c(C2CC2)nc2ccccc2c1-c1ccc(F)cc1` [PITAVASTATIN CALCIUM], for which the inhibition entry in experiment [4] and in experiment [7] was “Active” throughout. The same compound registered a dissociation constant (Kd) in experiment [5] of 13.3 µM.

`O=c1[nH]c2ccccc2n1CCCN1CCC(n2c(=O)[nH]c3cc(Cl)ccc32)CC1` [DOMPERIDONE] had a dissociation constant (Kd) in experiment [5] of 8.8 µM. The outcome in experiment [1] and in experiment [3] was inactive. The result in experiment [2] was Active.

Turning to `O=C(O)/C=C/C=C/C=C/c1c(C2CC2)nc2ccccc2c1-c1ccc(F)cc1`, the Kd in experiment [5] was determined as 5.12 µM. Further, the inhibition entry in experiment [8] is “Active”.

Turning to `CC1=C(C)C(=O)C(C(CCCCCC(=O)O)c2ccccc2)=C(C)C1=O` (stereo not drawn), the inhibition entry in experiment [4] is “Active”.

`O=C1CCc2cc(OCCCCc3nnnn3C3CCCCC3)ccc2N1`: in experiment [4], the inhibition result is “Active”.

What is called Kd is the free concentration of one partner at which half of the binding sites on the other are occupied at equilibrium, for simple one-to-one binding. A low value points to tighter binding.
